In patent publication EP1712231A2 (priority 1998, dated 2000):

What was measured:
[1] = Example 4: pharmacokinetic drug-drug interaction of tipranavir SEDDS 1250 mg BID and ritonavir oral solution 200 mg BID; type: in vivo, human; conditions: for CLPO / Cmin / Css: median (range)
[2] = Study 2: pharmacokinetic drug-drug interaction of tipranavir 600 or 900 mg BID and ritonavir 100-500 mg BID, plasma levels by HPLC; type: in vivo, human; conditions: for CLPO / Cmin / Css / AUC / Cmax / Tmax: median (range); for half-life / AUC / Cmax / Tmax: both sexes, human, plasma, oral; for half-life: harmonic mean (range), read-out: t½ (converted)
Method: Both groups received their assigned dose of tipranavir continuously throughout the study period. […] The pharmacokinetics of tipranavir when coadministered with ritonavir were evaluated and compared with baseline data, while the ritonavir data were compared to historical data. The study was conducted in 19 healthy volunteers (16 males and 3 females) with a mean age of 30 years (range, 19-52 years), height of 177.1 cm (range, 162.6-190.5 cm), and weight of 76.7 kg (range, 57.3-95.0 kg). Eighteen subjects were Caucasian […]. […] Pharmacokinetic analyses were based on those subjects completing the baseline evaluation and at least one period of concomitant drug administration. […] Detection was by UV absorbance at 260 nm. […] Ritonavir and the internal standard (IS) were extracted from human plasma by liquid-liquid extraction with an ethyl acetate mixture.

[3] = Example 3: pharmacokinetic drug-drug interaction of tipranavir 1200 mg BID and delavirdine 400 mg TID, plasma levels by HPLC
Method: Baseline pharmacokinetic data for each drug were obtained under pharmacokinetic steady-state conditions following 7 days of dosing. Each drug was then co-administered for 10 days, at which time the pharmacokinetics of each was re-evaluated and compared with baseline data. […] All subjects were Caucasian. […] Pharmacokinetic analyses were based on results obtained in these subjects.
Detection was by UV absorbance at 260 nm.
Plasma samples were assayed for delavirdine concentrations using a validated, sensitive and specific isocratic high performance liquid chromatographic (HPLC) method: one for the upper concentration range, and one for the lower concentration range. […] The supernatant was mixed with buffer and directly injected. Chromatographic separation was achieved using a Brownlee cyano guard column and an analytical column, DuPont Zorbax® SB CN.
Treatment effects on pharmacokinetic parameters were assessed using Wilcoxon's Signed Rank Test.

[4] = Study 1: pharmacokinetic drug-drug interaction of tipranavir 1350 mg BID and ritonavir 500 mg BID, plasma levels by HPLC; type: in vivo, human; conditions: for CLPO / Cmin / Css: median (range), n=10
From the text: Twelve subjects were Caucasian and two were of African descent. Ten subjects completed all aspects of the study. Pharmacokinetic analyses were based on the results obtained in these subjects. […] Detection was by UV absorbance at 260 nm. […] Ritonavir and the internal standard (IS) were extracted from human plasma by liquid-liquid extraction with an ethyl acetate mixture.

[5] = Table 1: tipranavir drug-drug interaction potential and routes of elimination of antiretrovirals; conditions: drug-drug interaction with tipranavir
[6] = Tipranavir SEDDS SEC 1250mg BID + Ritonavir Oral Solution 200mg BID, N=21
[7] = Tipranavir SEDDS SEC 1250mg BID alone, N=22
[8] = both sexes, human, plasma, oral, 1250 mg
[9] = Tipranavir 600 mg BID + RTV 100 mg BID, n=7
[10] = Tipranavir 600 mg BID + RTV 500 mg BID, n=7
[11] = Tipranavir 600 mg BID alone, n=7
[12] = Tipranavir 900 mg BID + RTV 100 mg BID, n=6
[13] = Tipranavir 900 mg BID + RTV 500 mg BID, n=6
[14] = Tipranavir 900 mg BID alone, n=6
[15] = 600 mg, Tipranavir 600 mg BID alone, n=7
[16] = 900 mg, Tipranavir 900 mg BID alone, n=6
[17] = tipranavir 600 mg BID + ritonavir 100 mg BID vs alone
[18] = tipranavir 600 mg BID + ritonavir 500 mg BID vs alone
[19] = tipranavir 900 mg BID + ritonavir 100 mg BID vs alone
[20] = tipranavir 900 mg BID + ritonavir 500 mg BID vs alone
[21] = Tipranavir 1350 mg BID + Ritonavir 500 mg BID
[22] = Tipranavir 1350 mg BID alone, steady state
[23] = tipranavir 1350 mg BID + ritonavir 500 mg BID vs tipranavir alone
[24] = delavirdine 400 mg TID + tipranavir 1200 mg BID vs delavirdine alone

Compound: CCC[C@@]1(CCc2ccccc2)CC(O)=C([C@H](CC)c2cccc(NS(=O)(=O)c3ccc(C(F)(F)F)cn3)c2)C(=O)O1 (relative stereo) [Tipranavir, [R-(R*,R*)]-N-[3-[1-[5,6-Dihydro-4-hydroxy-2-oxo-6-(2-phenylethyl)-6-propyl-2H-pyran-3-yl]propyl]phenyl]-5-(trifluoromethyl)-2-pyridinesulfonamide]
- CLPO [1, 6]: 1.19 (0.47-2.29) L/h
- Cmin [1, 6]: 62.1 (11.2-261) µM
- Css [1, 6]: 145 (76-371) µM
- CLPO [1, 7]: 12.7 (6.1-23.7) L/h
- Cmin [1, 7]: 0.82(0.30-2.20) µM
- Css [1, 7]: 13.6 (7.3-28.1) µM
- AUC [1, 8]: 163 µM·h
- Cmax [1, 8]: 56 µM
- Tmax [1, 8]: 2 h
- half-life ([1]; both sexes, human, plasma, oral, 1250 mg, read-out: t½ (converted)): 5.4 h
- increase of tipranavir steady-state concentrations ([1]; ritonavir 200 mg vs same dose (1250 mg BID) of tipranavir alone): more than 10 fold
- effect on apparent terminal half-life of tipranavir ([1]; tipranavir 1250 mg BID + ritonavir 200 mg BID): not significantly affected
- increase of median Cmax values ([1]; tipranavir 1250 mg BID + ritonavir oral solution 200 mg BID vs tipranavir alone): approximately 5 fold
- CLPO [2, 9]: 3.35 (2.44-6.07) L/h
- Cmin [2, 9]: 3.14 (1.61-12.8) µM
- Css [2, 9]: 24.8 (13.7-34.0) µM
- CLPO [2, 10]: 2.23 (1.02-4.79) L/h
- Cmin [2, 10]: 14.3 (4.70-32.5) µM
- Css [2, 10]: 37.2 (17.3-81.0) µM
- Cmin ([2]; Tipranavir 600 mg BID + RTV 500 mg BID, n=7, listed as tipranavir): 14.3 µM
- CLPO [2, 11]: 31.3 (17.3-88.8) L/h
- Cmin [2, 11]: 0.341 (0.165-0.929) µM
- Css [2, 11]: 2.70 (0.94-4.79) µM
- CLPO [2, 12]: 4.10 (2.45-7.86) L/h
- Cmin [2, 12]: 3.62 (1.98-6.95) µM
- Css [2, 12]: 30.6 (15.8-50.8) µM
- CLPO [2, 13]: 1.64 (1.00-2.82) L/h
- Cmin [2, 13]: 22.7 (9.91-63.2) µM
- Css [2, 13]: 76.1 (44.1-124.8) µM
- CLPO [2, 14]: 32.4 (20.8-53.1) L/h
- Cmin [2, 14]: 0.499 (0.160-1.150) µM
- Css [2, 14]: 3.88 (2.34-5.98) µM
- half-life [2, 15]: 3.6 h
- AUC [2, 15]: 32.5 µM·h
- Cmax [2, 15]: 11.3 µM
- Tmax [2, 15]: 2 h
- half-life [2, 16]: 4.2 h
- AUC [2, 16]: 46.5 µM·h
- Cmax [2, 16]: 14.6 µM
- Tmax [2, 16]: 2 h
- half-life [2, 9]: 2.3 h
- AUC [2, 9]: 297 µM·h
- Cmax [2, 9]: 56.8 µM
- Tmax [2, 9]: 2 h
- half-life [2, 10]: 3.7 h
- AUC [2, 10]: 446 µM·h
- Cmax [2, 10]: 78.6 µM
- Tmax [2, 10]: 2 h
- half-life [2, 12]: 1.9 h
- AUC [2, 12]: 368 µM·h
- Cmax [2, 12]: 68.9 µM
- Tmax [2, 12]: 3 h
- half-life [2, 13]: 3.5 h
- AUC [2, 13]: 913 µM·h
- Cmax [2, 13]: 148 µM
- Tmax [2, 13]: 2 h
- predicted tipranavir concentration (target minimal therapeutic threshold) ([2]; extrapolated to a dose of ritonavir 30 mg BID): 1 µM
- lowest median trough tipranavir concentration ([2]; in combination with ritonavir 100 mg BID): exceeded 3 µM
- increase of plasma tipranavir concentrations ([2]; ritonavir 100 mg BID vs same dose of tipranavir alone): ~10 fold
- increase of median AUC values of tipranavir [2, 17]: approximately 9 fold
- increase of median Cmax values [2, 17]: 5 fold
- increase of median trough tipranavir concentrations [2, 17]: approximately 9 fold
- increase of median AUC values of tipranavir [2, 18]: approximately 14 fold
- increase of median Cmax values [2, 18]: 7 fold
- increase of median trough tipranavir concentrations [2, 18]: approximately 40 fold
- effect on apparent terminal half-life of tipranavir ([2]; tipranavir 600 mg BID with concomitant ritonavir): no prolongation of the apparent terminal half-life
- trough concentration ([2]; tipranavir 600 mg with ritonavir 500 mg): exceeding 3 µM
- increase of median AUC values of tipranavir [2, 19]: approximately 8 fold
- increase of median Cmax values [2, 19]: 5 fold
- increase of median trough tipranavir concentrations [2, 19]: approximately 7 fold
- increase of median AUC values of tipranavir [2, 20]: approximately 20 fold
- increase of median Cmax values [2, 20]: 10 fold
- increase of median trough tipranavir concentrations [2, 20]: approximately 45 fold
- effect on apparent terminal half-life of tipranavir ([2]; tipranavir 900 mg BID with concomitant ritonavir): No prolongation of the apparent terminal half-life
- effect of delavirdine on the pharmacokinetics of tipranavir ([3]; tipranavir 1200 mg BID + delavirdine 400 mg TID, steady state): no effect
- CLPO [4, 21]: 1.9 (1.2-3.8) L/h
- Cmin [4, 21]: 42 (12-84) µM
- Css [4, 21]: 100 (49-161) µM
- Cmin ([4]; Tipranavir 1350 mg BID + Ritonavir 500 mg BID, listed as tipranavir): 42 µM
- CLPO [4, 22]: 31 (11-100) L/h
- Cmin [4, 22]: 0.78 (0.34-1.42) µM
- Css [4, 22]: 6.1 (1.9-16.8) µM
- effect on tipranavir elimination half-life (t½) [4, 23]: not accompanied by a prolongation of the elimination half-life
- increase of mean steady-state plasma tipranavir concentrations (Css) [4, 23]: 12 fold
- increase of median tipranavir Cmax value in the presence of ritonavir [4, 23]: approximately 5.6 fold
- increase of median tipranavir Cmin values [4, 23]: 45 fold

Compound: CC(C)Nc1cccnc1N1CCN(C(=O)c2cc3cc(NS(C)(=O)=O)ccc3[nH]2)CC1 [Delavirdine]
- Potential for Clinically Significant Interaction [5]: High (and unfavorable)
- decrease of delavirdine AUC by tipranavir ([3]; coadministration with tipranavir): > 95%
- median delavirdine AUC value, fold lower [3, 24]: more than 20 fold
- median trough delavirdine concentration, fold lower [3, 24]: more than 100 fold
